Reference: article PMC6754346, “Compounds with capacity to quench the tyrosyl radical in Pseudomonas aeruginosa ribonucleotide reductase” (Journal of Biological Inorganic Chemistry, 2019)

Columns and labels:
[1] = biological target: P. aeruginosa RNR active holoenzyme (NrdA/B complex) (Pseudomonas aeruginosa, UniProt Q9I4I1+Q9I4I2); assay: EPR, tyrosyl radical quenching in holoenzyme; format: biochemical; conditions: 133 µM compound, 12 µM each NrdA and NrdB, 5 mM ATP, 10 mM magnesium acetate, 30 mM DTT, 50 mM Tris pH 7.5; corrected for control decay
Text: EPR, tyrosyl radical quenching in holoenzyme on P. aeruginosa RNR active holoenzyme (NrdA/B complex)

NrdB = biological target: T1, NrdB (Pseudomonas aeruginosa, UniProt Q9I4I2); assay: EPR, tyrosyl radical quenching; format: biochemical; conditions: 133 µM compound, 15 µM Fe-reconstituted NrdB, 50 mM Tris pH 7.5, 1% DMSO, no DTT; corrected for control decay
T1 construct: homodimer concentrations; apoNrdB reconstituted with Fe2+ for EPR
Text: EPR, tyrosyl radical quenching on NrdB

Sequence of P. aeruginosa RNR active holoenzyme (NrdA/B complex) (Q9I4I1 1-963): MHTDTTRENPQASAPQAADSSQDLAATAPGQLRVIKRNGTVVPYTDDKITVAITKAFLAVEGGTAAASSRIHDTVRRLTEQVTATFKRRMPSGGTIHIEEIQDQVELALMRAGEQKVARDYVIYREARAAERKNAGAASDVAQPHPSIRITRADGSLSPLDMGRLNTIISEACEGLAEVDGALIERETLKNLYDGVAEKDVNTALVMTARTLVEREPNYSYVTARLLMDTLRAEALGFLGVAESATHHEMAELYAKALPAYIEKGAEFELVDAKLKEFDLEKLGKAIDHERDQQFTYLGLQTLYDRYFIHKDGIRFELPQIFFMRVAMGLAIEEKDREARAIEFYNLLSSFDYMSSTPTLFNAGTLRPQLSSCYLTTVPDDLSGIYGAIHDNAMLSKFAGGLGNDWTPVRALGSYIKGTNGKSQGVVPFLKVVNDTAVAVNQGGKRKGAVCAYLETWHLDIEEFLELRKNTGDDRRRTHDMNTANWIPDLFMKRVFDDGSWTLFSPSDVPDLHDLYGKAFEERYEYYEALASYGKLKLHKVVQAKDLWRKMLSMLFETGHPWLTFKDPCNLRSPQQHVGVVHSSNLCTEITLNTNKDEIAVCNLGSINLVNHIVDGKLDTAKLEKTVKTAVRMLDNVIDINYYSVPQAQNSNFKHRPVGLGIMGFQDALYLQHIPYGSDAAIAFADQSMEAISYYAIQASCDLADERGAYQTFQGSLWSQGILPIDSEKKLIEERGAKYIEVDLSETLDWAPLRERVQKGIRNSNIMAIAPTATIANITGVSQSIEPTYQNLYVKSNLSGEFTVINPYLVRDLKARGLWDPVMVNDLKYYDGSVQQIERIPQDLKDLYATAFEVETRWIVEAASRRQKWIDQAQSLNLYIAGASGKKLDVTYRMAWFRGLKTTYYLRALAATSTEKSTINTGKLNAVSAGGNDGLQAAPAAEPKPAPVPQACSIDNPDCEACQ
Sequence of P. aeruginosa RNR active holoenzyme (NrdA/B complex) (Q9I4I2 1-415): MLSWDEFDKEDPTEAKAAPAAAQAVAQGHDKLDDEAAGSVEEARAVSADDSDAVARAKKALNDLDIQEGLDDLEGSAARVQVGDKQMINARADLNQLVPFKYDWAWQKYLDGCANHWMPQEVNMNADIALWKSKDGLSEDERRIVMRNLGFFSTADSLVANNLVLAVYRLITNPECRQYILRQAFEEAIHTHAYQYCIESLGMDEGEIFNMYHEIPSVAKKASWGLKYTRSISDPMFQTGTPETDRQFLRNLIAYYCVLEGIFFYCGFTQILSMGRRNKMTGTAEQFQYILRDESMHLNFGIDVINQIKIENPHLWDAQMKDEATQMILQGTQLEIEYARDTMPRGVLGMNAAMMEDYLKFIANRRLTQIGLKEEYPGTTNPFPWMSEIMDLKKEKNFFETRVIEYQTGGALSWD
T1 sequence (Q9I4I2 1-415): as above

| Compound | Tyrosyl radical decay rate [1] [min⁻¹] | Tyrosyl radical decay rate and radical left after 10 min / NrdB only^a (NrdB) [min⁻¹] |
| --- | --- | --- |
| COc1ccc(C2=NC(=O)NC2c2ccc(OC)cc2)cc1 (stereo not drawn) [compound 26692, NSC26692] | 0.18 ± 0.19 |  |
| COc1cc(-c2ccc(Nc3ccccc3C(=O)O)c(OC)c2)ccc1Nc1ccccc1C(=O)O [compound 73735, NSC73735] | 0.67 ± 0.01 |  |
| CCc1oc2ccccc2c1C(=O)c1cc(Br)c(O)c(Br)c1 [compound 85433, NSC85433] | 0.33 ± 0.03 |  |
| CC(=O)c1cc(O)c2ccccc2c1O [compound 111552, NSC111552] | 0.43 ± 0.32 | 0.19 ± 0.03 |
| N#Cc1c(C#N)c(O)c2ccccc2c1O [compound 128281, NSC128281] | 0.43 ± 0.03 | 0.30 ± 0.07 |
| CCOC(=O)/C=C(/C)Sc1cc(O)c2ccccc2c1O [compound 278631, NSC278631] |  | 0.40 ± 0.06 |
| O=C(Nc1ccc(Cl)c(Cl)c1)Nc1ccccc1O [compound 522131, NSC522131] |  | 0.35 ± 0.04 |
